The results in this text go back to US20090124631A1, “Combination Therapy” (priority 2007, published 2009).

Experiment [1] relates to mouse endothelial MS-1 cells. Briefly: Growth inhibition of MS-1 cells by taxol with recombinant TSP-1. Type of experiment: cell-based. As to conditions: recombinant TSP1 10 ug/ml, 72 hour. How it is done:
Mouse endothelial MS-1 cells were seeded into 96 well-plate and incubated in 5% CO2 incubator for 24 hours. Taxol at various concentrations was added into cell culture and 6 hours later media were replaced with fresh media containing recombinant TSP1 (10 ug/ml) but without taxol. After 72 hour incubation, the growth inhibitory effect was determined by crystal violet staining.

Experiment [2] has as its system tubulin acetylation in human bladder carcinoma T24 cells. Briefly: Cell-based ELISA for tubulin acetylation. The procedure: (§1) Bladder carcinoma T24 cells were seeded in black plates with clear bottoms (Costar #3603) at 1×10^4 cells per well in a volume of 100 μl per well, and were allowed to settle for one day at 37° C. in a CO2 incubator. The cells were treated for 16 h with various concentrations of HDAC inhibitors. 3 h before the end of the treatment, Alamar Blue (BioSource) was added to monitor cell viability according to the manufacturer's instructions. At the end of the treatment time, Alamar Blue OD (at 570 nm and 600 nm) was recorded, then the cells were carefully washed in PBS, fixed in pre-chilled methanol for 10 min at −20° C., washed again twice in PBS, and blocked in PBS containing 0.1% Triton X-100 and 1% BSA for a minimum of 30 min. For H3 acetylation, rabbit-anti-acetyl-H3 (Upstate #06-599) was used as primary antibody at a dilution of 1:1000 for 45 min; the secondary antibody was HRP-coupled goat-anti-rabbit (Sigma #A-0545), used at 1:8000 for 45 min. For tubulin acetylation, the primary antibody was mouse anti-acetyl-tubulin (Sigma #T-6793, 1:2000, 45 min) while the secondary was HRP-coupled goat-anti-mouse antibody (Sigma #A-2304, 1:8000, 45 min). All antibodies were diluted in blocking buffer, and the cells were washed in blocking buffer following each antibody incubation. […] The fluorescent signal for acetylation was normalized by dividing with the viability data obtained from Alamar Blue. EC50 was defined as the concentration of compound which gave a signal half-way between the basal (untreated) level and the maximum level generated by high doses of the HDAC pan-inhibitor NVP-LAQ-824.
In general terms: An ELISA detects its analyte on a solid surface through an enzyme-linked reagent.

Experiment [3] relates to histone H3 acetylation in human bladder carcinoma T24 cells. Kind of experiment: Cell-based ELISA for H3 acetylation. How it is done:
as §1

The subject of experiment [4] is VEGF expression in DU145 cells. Briefly: VEGF transcription in Du145 cells in vitro. The class given is cell-based, human. As to conditions: 24 hour treatment. The procedure: (§2) Human prostate cancer Du145 cells were exposed to Cpd A or SAHA (3 microM) for 24 hours. Total RNA was collected by Isogen (Nippongene, Tokyo, Japan) and reverse-transcribed to cDNA by ExScript® RT reagent Kit (TAKARA, Kyoto, Japan). The expression level of bFGF mRNA was detected by ABI7700 analyzer using probe/primer pre-mixture reagent (ABI, Cat# Hs00266645_m1, CA, USA) and TaqMan® Universal PCR Master Mix (ABI, Cat# 430-4437) as described in the ABI's protocol. The expression level of VEGF mRNA was detected in a similar manner using the appropriate probe/primer reagents.

Experiment [5] concerns TSP-1 expression in cancer cells (Du145, H460, A549). Briefly: TSP-1 transcription in cancer cells in vitro. The class given is cell-based, human. As to conditions: over time, 3 microM, 24 hours. The procedure: Cells were exposed by Cpd A or SAHA (3 microM) for 24 hours. Total RNA was collected by Isogen (Nippongene, Tokyo, Japan) and reverse-transcribed to cDNA by ExScript® RT reagent Kit (TAKARA, Kyoto, Japan). The expression level of TSP-1 mRNA was detected by ABI7700 analyzer using a probe/primer pre-mixture reagent (ABI, Cat#, CA, USA) and TaqMan® Universal PCR Master Mix (ABI, Cat# 430-4437) as described in the ABI's protocol.

Experiment [6] has as its system human H460 non-small cell lung tumor, Du145 prostate tumor, TSU-Pr1 prostate tumor, and AZ521 gastric tumor xenograft. Briefly: Xenograft combination studies with taxol (Example 15). The class given is in vivo, mouse. As to conditions: oral administration, nude mice with human lung, prostate and gastric tumors. How it is done: (§3) Antitumor studies were done using human H460 non-small cell lung tumor, Du145 prostate tumor, TSU-Pr1 prostate tumor, and AZ521 gastric tumor xenograft model in male BALBc/A nude mice (from Japan Crea Inc., Japan). Male nude mice were used at age 8-10 weeks. Human carcinoma cells were injected subcutaneously in the animal flank and allowed to form solid tumors. Tumor fragments (about 2 mm^3 fragments) were then removed and implanted subcutaneously through a small surgical incision to the right flank of other animals. […] Tumor volumes and gross body weight of animals were monitored twice weekly for up to 2 weeks for AZ-521 and TSU-Pr1, or 4 weeks for H460 and Du145 xenografts. Each experimental group contained 6 animals.
For orientation: In xenograft studies the graft and the host belong to different species.

The test system of another experiment is H460 (NSCLC) xenografts. Kind of experiment: H460 (NSCLC) xenograft, oral HDAC inhibitor with taxol. As to conditions: Compound A 100 mg/kg or SAHA 120 mg/kg with taxol 60 mg/kg. Type of experiment: in vivo, mouse. How it is done: as §3
The test system of experiment [7] is bFGF transcription in human prostate cancer Du145 cells. Briefly: bFGF transcription in Du145 cells in vitro. Type of experiment: cell-based. As to conditions: 3 μM, 24 hour treatment. The procedure: as §2
The target in another experiment is T1, HDAC2 (Homo sapiens, UniProt Q92769).
T1 construct: cDNAs corresponding to the full length human HDAC1, 2, 3 and 11 were cloned into pBlueBac4.5 vector; FLAG (C); made in house; host or cells: Sf-9 insect cells (baculovirus)
T1 sequence (Q92769 whole entry): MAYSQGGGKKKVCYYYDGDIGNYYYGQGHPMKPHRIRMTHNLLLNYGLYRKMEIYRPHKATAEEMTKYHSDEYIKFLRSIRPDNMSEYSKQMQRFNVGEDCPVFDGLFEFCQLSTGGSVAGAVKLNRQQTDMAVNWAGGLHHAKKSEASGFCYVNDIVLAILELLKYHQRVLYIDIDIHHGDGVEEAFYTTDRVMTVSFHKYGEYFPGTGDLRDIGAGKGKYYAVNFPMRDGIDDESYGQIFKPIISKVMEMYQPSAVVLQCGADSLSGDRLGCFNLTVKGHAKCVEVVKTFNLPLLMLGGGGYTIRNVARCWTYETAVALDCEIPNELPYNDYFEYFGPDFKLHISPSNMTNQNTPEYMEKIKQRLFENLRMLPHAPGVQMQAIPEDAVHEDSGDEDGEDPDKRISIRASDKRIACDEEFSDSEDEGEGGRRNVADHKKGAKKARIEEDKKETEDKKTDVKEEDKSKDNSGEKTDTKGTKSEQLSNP
Briefly: Fluorescence-based HDAC enzyme assay, recombinant HDAC2. Type of experiment: biochemical. As to conditions: recombinant human HDAC enzyme in vitro; read-out: IC50 (μM) HD2. The text has this:
(§4) cDNAs of human HDAC1-8 and 11 were generated by RT-PCR reactions using primers complementary to the 5′ and 3′ coding sequence of human HDAC gene sequences in GenBank. cDNAs corresponding to the full length human HDAC1, 2, 3 and 11 were cloned into pBlueBac4.5 vector (Invitrogen). The constructs were used to generate recombinant baculoviruses using the Bac-N-Blue™ DNA according to the manufacturer's instructions (Invitrogen). The recombinant HDAC1, 2, 3, 11 proteins produced harbor a FLAG tag at their C-termini. cDNAs encoding truncated versions of HDAC4, 5 and 7 encompassing their deacetylase domains were cloned into pDEST10 as an N-terminal hexahistidine fusion protein and recombinant baculoviruses were generated using the Bac-to-Bac™ Baculovirus expression system (Invitrogen). HDAC6 and 8 were cloned as full length N-terminally His-tagged protein. All HDAC proteins were expressed in insect Sf-9 cells (Spodoptera frugiperdai) upon infection with recombinant baculovirus. HDAC1 enzyme was purified from the Q-sepharose FF column (Amersham Pharmacia Biotech, Baie d'Urfe QC, Canada) followed by an anti-FLAG immunoaffinity column (Sigma). […] HDAC4, 5, 6, 7 and 8 were purified using either Ni-NTA resin (QIAGEN Mississauga ON, Canada) or His-Select resin (Sigma) with step washes and elution with different concentrations of imidazole in Buffer containing 25 mM Tris (or NaPO4) pH 8.0, 10% glycerol and 150 mM or 500 mM NaCl.
(§5) Boc-Lys(Ac)-AMC (for HDAC1, 2, 3, 6, and 8 enzymes), which was purchased from Bachem Biosciences Inc., (King of Prussia, Philadelphia) were added into enzyme-compound mixture and incubated at 37° C. For HDAC4, 5, 7 assays, Boc-Lys(TFA)-AMC, which was synthesized in house, was used as substrate and 0.1% BSA was added to the buffer. […] Reaction time was predetermined to ensure that reaction was linear for the incubation time. Reaction was stopped by adding a freshly prepared trypsin (1 mg/ml final concentration) with 1 μM TSA (Biomol) in assay buffer. After 30 minutes, fluorescence was measured using a fluorometer (SPECTRAMAX GeminiXS, Molecular Devices, Sunnylvale, Calif.).

Experiment [8] deals with recombinant human HDAC enzymes. Kind of experiment: HDAC isotype selectivity across recombinant HDAC enzymes. Type of experiment: biochemical. As to conditions: from Table 1.
Text: as §4, §5

The next experiment concerns the target T2, HDAC1 (Homo sapiens, UniProt Q13547).
T2 construct: cDNAs corresponding to the full length human HDAC1, 2, 3 and 11 were cloned into pBlueBac4.5 vector; FLAG (C); made in house; host or cells: Sf-9 insect cells (baculovirus)
Kind of experiment: Fluorescence-based HDAC enzyme assay, recombinant HDAC1. The class given is biochemical. As to conditions: recombinant human HDAC enzyme in vitro; read-out: IC50 (μM) HD1.
Text: as §4, §5

For another experiment, the target named is T3, HDAC3 (Homo sapiens, UniProt O15379).
T3 construct: cDNAs corresponding to the full length human HDAC1, 2, 3 and 11 were cloned into pBlueBac4.5 vector; FLAG (C); made in house; host or cells: Sf-9 insect cells (baculovirus)
T3 sequence (O15379 whole entry): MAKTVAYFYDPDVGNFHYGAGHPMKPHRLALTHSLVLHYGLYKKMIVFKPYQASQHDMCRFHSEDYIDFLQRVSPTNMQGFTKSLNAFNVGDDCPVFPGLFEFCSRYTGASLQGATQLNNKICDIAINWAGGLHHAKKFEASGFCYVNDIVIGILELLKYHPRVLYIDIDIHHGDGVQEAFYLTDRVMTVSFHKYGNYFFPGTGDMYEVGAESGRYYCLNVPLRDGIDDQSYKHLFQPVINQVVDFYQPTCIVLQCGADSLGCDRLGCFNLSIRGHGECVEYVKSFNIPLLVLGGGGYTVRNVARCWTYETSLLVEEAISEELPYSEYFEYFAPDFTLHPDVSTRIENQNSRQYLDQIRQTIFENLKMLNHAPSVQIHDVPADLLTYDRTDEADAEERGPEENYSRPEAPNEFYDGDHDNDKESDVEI
Kind of experiment: Fluorescence-based HDAC enzyme assay, recombinant HDAC3. Type of experiment: biochemical. As to conditions: recombinant human HDAC enzyme in vitro; read-out: IC50 (μM) HD3. The text has this:
cDNAs of human HDAC1-8 and 11 were generated by RT-PCR reactions using primers complementary to the 5′ and 3′ coding sequence of human HDAC gene sequences in GenBank. cDNAs corresponding to the full length human HDAC1, 2, 3 and 11 were cloned into pBlueBac4.5 vector (Invitrogen). The constructs were used to generate recombinant baculoviruses using the Bac-N-Blue™ DNA according to the manufacturer's instructions (Invitrogen). The recombinant HDAC1, 2, 3, 11 proteins produced harbor a FLAG tag at their C-termini. cDNAs encoding truncated versions of HDAC4, 5 and 7 encompassing their deacetylase domains were cloned into pDEST10 as an N-terminal hexahistidine fusion protein and recombinant baculoviruses were generated using the Bac-to-Bac™ Baculovirus expression system (Invitrogen). HDAC6 and 8 were cloned as full length N-terminally His-tagged protein. All HDAC proteins were expressed in insect Sf-9 cells (Spodoptera frugiperdai) upon infection with recombinant baculovirus. HDAC1 enzyme was purified from the Q-sepharose FF column (Amersham Pharmacia Biotech, Baie d'Urfe QC, Canada) followed by an anti-FLAG immunoaffinity column (Sigma). HDAC2, 3 and 11 were purified using Flag-antibody immunoaffinity purification. HDAC4, 5, 6, 7 and 8 were purified using either Ni-NTA resin (QIAGEN Mississauga ON, Canada) or His-Select resin (Sigma) with step washes and elution with different concentrations of imidazole in Buffer containing 25 mM Tris (or NaPO4) pH 8.0, 10% glycerol and 150 mM or 500 mM NaCl.
Recombinant HDAC enzymes were incubated with diluted compounds in assay buffer (25 mM Hepes, pH 8.0, 137 mM NaCl, 1 mM MgCl2 and 2.7 mM KCl) for 10 minutes at ambient temperatures in black 96-well plate. Boc-Lys(Ac)-AMC (for HDAC1, 2, 3, 6, and 8 enzymes), which was purchased from Bachem Biosciences Inc., (King of Prussia, Philadelphia) were added into enzyme-compound mixture and incubated at 37° C. […] After 30 minutes, fluorescence was measured using a fluorometer (SPECTRAMAX GeminiXS, Molecular Devices, Sunnylvale, Calif.). […]

What is called IC50 is the point on the concentration scale where inhibition reaches its midpoint.

T2 sequence (Q13547 whole entry): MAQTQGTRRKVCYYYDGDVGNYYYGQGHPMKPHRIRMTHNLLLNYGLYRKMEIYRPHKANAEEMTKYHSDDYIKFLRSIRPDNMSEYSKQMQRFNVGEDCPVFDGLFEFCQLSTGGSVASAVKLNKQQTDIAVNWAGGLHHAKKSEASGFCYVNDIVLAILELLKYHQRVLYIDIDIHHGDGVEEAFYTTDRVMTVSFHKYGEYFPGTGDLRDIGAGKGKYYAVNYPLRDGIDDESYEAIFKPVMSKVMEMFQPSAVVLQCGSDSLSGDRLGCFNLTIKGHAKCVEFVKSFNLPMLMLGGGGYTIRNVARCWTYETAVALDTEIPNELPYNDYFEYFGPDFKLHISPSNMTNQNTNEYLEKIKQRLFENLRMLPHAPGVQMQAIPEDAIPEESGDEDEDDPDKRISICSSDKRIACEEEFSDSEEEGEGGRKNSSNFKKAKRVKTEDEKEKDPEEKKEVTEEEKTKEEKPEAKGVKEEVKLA

Regarding “Recombinant TSP-1: recombinant thrombospondin-1, agonist of TSP1 receptor”, in experiment [1], the “proapoptotic effect of taxol” value is reported as “Potentiates”.
On to `O=C(/C=C/c1ccc(CN(CCO)CCc2c[nH]c3ccccc23)cc1)NO` [NVP-LAQ824], for which, in experiment [2], the tubulin acetylation entry was “Nonselective effect”. The “histone H3 acetylation” value in [3] is reported as “Nonselective effect”.
As to `O=C(CCCCCCC(=O)Nc1ccccc1)NO` [SAHA, reference compound], the VEGF expression entry in experiment [4] is “Reduction”. In experiment [2], the tubulin acetylation entry is “Nonselective effect”. For the same molecule, the “histone H3 acetylation” value in [3] is reported as “Nonselective effect”. For the same molecule, in experiment [5], the TSP-1 expression result was “Induction”. Besides, the “antitumor activity of taxol” value in experiment [6] is “Potentiation”. The “tumor response to combination therapy with taxol” value in the experiment with H460 (NSCLC) xenografts was “tumor regression”. In addition, the bFGF transcription result in experiment [7] is reported as “Reduction”.
On to `O=C(Nc1ccccc1)c1ccc(CNc2nccc(-c3cccnc3)n2)cc1` [Compound C], for which the IC50 at HDAC2, at HDAC1 and at HDAC3 was more than 10 µM each time. The HDAC isotype selectivity result in [8] is “inactive”.
